Blank lines part the entries; values can stand above or below the compound they belong to.
How the values were obtained:
CYSLTR1 = target: T1, CYSLTR1 (Homo sapiens, UniProt Q9Y271); assay: NanoBRET screen HiBiT-CYSLTR1 in HEK293; format: binding; details: CYSLTR1
T1 construct: purchased Promega (in-house HiBiT-GPCR construct library, NanoBRET)
T1 sequence (Q9Y271 1-337): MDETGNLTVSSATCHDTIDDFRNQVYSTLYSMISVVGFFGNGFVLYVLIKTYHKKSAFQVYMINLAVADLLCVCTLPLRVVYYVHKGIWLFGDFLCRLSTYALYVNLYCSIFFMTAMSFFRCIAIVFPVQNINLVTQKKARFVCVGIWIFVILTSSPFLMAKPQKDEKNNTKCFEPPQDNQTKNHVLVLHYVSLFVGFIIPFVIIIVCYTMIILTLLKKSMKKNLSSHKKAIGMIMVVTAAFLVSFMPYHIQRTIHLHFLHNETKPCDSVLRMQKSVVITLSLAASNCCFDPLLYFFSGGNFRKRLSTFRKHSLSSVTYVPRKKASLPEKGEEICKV
Method: (§1) Each tracer candidate was screened across the entire library of HiBiT-GPCR constructs using NanoBRET as the detection modality. As depicted in Figure 4A, the specificity of interactions was evaluated through decrease in BRET due to competitive displacement of a bound tracer by excess parental compound. Each tracer was analyzed for binding to each HiBiT-GPCR fusion in the absence and in the presence of competing parental compound. Briefly, HEK293 cells were transfected with HiBiT-GPCR constructs diluted into promoterless DNA to reduce expression and maximize translocation to the cell surface. Each tracer candidate was then screened at concentrations of 1 μM and 0.1 μM across cells expressing these fusions. Cells were treated for 1.5 h with tracer either alone or in the presence of 20 μM competing parental compound (i.e., control). BRET was measured upon addition of purified LgBiT and subsequent complementation with HiBiT genetically fused to a GPCR. The specificity of interactions was assessed through a decrease in BRET signal due to competitive displacement of the bound tracer. To further gauge the robustness of these interactions, the fold response over the control (i.e., BRETtracer/BRETcontrol) was calculated. We chose a 1.5-fold response, which translates to ≥7-fold signal over noise as the minimal threshold required to score an interaction as positive.
(§2) HiBiT-GPCR DNA constructs were diluted in 10 mM Tris pH 8 to a final concentration of 0.01 μg/μL, arrayed in 96-well plates and stored at −20 °C. For transfection, HEK293 cells were suspended in Opti-MEM (without phenol red) supplemented with 2% fetal bovine serum (Seradigm) and 100 units/mL penicillin–streptomycin (Gibco) at a final concentration of 220,000 cells/mL and dispensed into white 96-well plates at 90 μL/well. Subsequent transfections and screens were carried using an Agilent Bravo Automated Liquid Handling Platform. First, the 96-well HiBiT DNA arrays were diluted 25-fold in Opti-MEM (without serum or phenol red) to a final concentration of 0.0004 μg/μL and 20 μL of the diluted DNAs were transferred into new 96-well plates. Next, promoterless carrier DNA (1 μg/μL) was diluted 25-fold (0.04 μg/μL) and then dispensed into the diluted arrays at 20 μL/well. Following brief mixing, Viafect transfection reagent (Promega) diluted 16-fold into Opti-MEM was dispensed into the plates at 40 μL/well. After mixing by pipetting, plates were incubated for 10 min on the pipetting station deck. The DNA-transfection reagent complexes were then added to plates containing cells. To facilitate the screen, 10 μL of DNA-transfection reagent complexes were added in duplicates to the top 4 and bottom 4 rows, resulting in two identical 48-well arrays per plate. Plates with transfected cells were incubated for 18–20 h at 37 °C/5% CO2. A screen of each tracer across the entire library using two different concentrations requires duplicate plates of transfected cells. Depending on the number of tracers being screened, transfections can be scaled up using the same ratios. The next day, for each tracer, four 20× screening solutions in tracer dilution buffer (Promega) were prepared: two duplicates at final concentration of 20 μM and two duplicates at a final concentration of 2 μM. […] The four resulting solutions were diluted 4-fold in Opti-MEM without serum or phenol red to generate 5× solutions (5 µM and 0.5 µM tracer +/− 100 μM competing compound). To screen the library, a BioTek MultiFlo FX liquid dispenser was used to dispense 22.5 µL of tracer solution to the top 4 rows and 22.5 µL tracer + competing compound solution to the 4 bottom rows. Plates were briefly mixed on an orbital shaker and incubated for 1.5 h at room temperature. […] Plates were briefly mixed on an orbital shaker and incubated for 15 min to allow complementation.

ADRA1B = target: T2, ADRA1B (Homo sapiens, UniProt P35368); assay: NanoBRET screen HiBiT-ADRA1B in HEK293; format: binding
T2 construct: purchased Promega (in-house HiBiT-GPCR construct library, NanoBRET)
T2 sequence (P35368 1-520): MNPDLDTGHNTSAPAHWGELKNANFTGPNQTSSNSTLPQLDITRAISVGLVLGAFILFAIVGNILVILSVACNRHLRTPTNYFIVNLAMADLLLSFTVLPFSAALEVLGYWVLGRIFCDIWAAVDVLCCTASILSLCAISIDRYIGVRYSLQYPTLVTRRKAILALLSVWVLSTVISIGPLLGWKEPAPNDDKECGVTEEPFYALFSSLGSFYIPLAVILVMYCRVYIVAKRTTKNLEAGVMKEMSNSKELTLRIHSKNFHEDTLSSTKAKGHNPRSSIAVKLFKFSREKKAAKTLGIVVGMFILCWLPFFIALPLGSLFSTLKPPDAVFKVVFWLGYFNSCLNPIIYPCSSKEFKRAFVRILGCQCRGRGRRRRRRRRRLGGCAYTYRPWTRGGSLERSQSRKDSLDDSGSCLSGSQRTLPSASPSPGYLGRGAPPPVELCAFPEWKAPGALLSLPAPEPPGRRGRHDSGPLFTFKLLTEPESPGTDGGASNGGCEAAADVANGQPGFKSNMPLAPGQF
Method: as §1, §2

Compound: Cc1nc2n(c(=O)c1CCN1CCC(c3noc4cc(F)ccc34)CC1)CCCC2OC(=O)NCCOCCOCCOCCOCCNC(=O)CCc1ccc2n1[B-](F)(F)[N+]1=C(c3ccc[nH]3)C=CC1=C2 (stereo not shown) [Risperidone-2-NB590]
NanoBRET Fold Response (CYSLTR1; tracer 0.1μM): 0.97
NanoBRET Fold Response (CYSLTR1; tracer 1μM): 0.94

NanoBRET Fold Response (ADRA1B; ADRA1B, 0.1μM): 1.08
NanoBRET Fold Response (ADRA1B; ADRA1B, 1μM): 1.06
NanoBRET Fold Response (CYSLTR1; 0.1μM): 1.01
NanoBRET Fold Response (CYSLTR1; 1μM): 0.98
Compound: CCOC(=O)c1cc(C#N)c(N2CCC(C(=O)NS(=O)(=O)Cc3ccccc3/C=C/C(=O)NCCNC(=O)CCc3ccc4n3[B-](F)(F)[N+]3=C(c5ccc[nH]5)C=CC3=C4)CC2)nc1C [AZD1283-1-NB590]

Compound: Cc1cc2c(s1)Nc1ccccc1N=C2N1CCN(CCCNC(=O)CCOCCOCCOCCOCCNC(=O)CCc2ccc3n2[B-](F)(F)[N+]2=C(c4ccc[nH]4)C=CC2=C3)CC1 [Olanzapine-a-2-NB590]
NanoBRET Fold Response (ADRA1B; ADRA1B, tracer 0.1μM): 1.26
NanoBRET Fold Response (ADRA1B; ADRA1B, tracer 1μM): 1.98
NanoBRET Fold Response (CYSLTR1; tracer 0.1μM): 1.00
NanoBRET Fold Response (CYSLTR1; tracer 1μM): 1.06

Compound: COc1ccccc1N1CCN(CCCCN2C(=O)c3ccc(CNC(=O)CCOCCNC(=O)c4ccc(CNC(=O)CCc5ccc6n5[B-](F)(F)[N+]5=C(c7ccc[nH]7)C=CC5=C6)cc4)cc3C2=O)CC1 [NAN-190-3-NB590]
NanoBRET Fold Response (ADRA1B; ADRA1B, tracer 0.1μM): 1.70
NanoBRET Fold Response (ADRA1B; ADRA1B, tracer 1μM): 1.72
NanoBRET Fold Response (CYSLTR1; tracer 0.1μM): 1.15
NanoBRET Fold Response (CYSLTR1; tracer 1μM): 1.30

Compound: CC(C)N(CC[C@H](c1ccccc1)c1cc(CCNC(=O)CCOCCOCCOCCOCCNC(=O)CCc2ccc3n2[B-](F)(F)[N+]2=C(c4ccc[nH]4)C=CC2=C3)ccc1O)C(C)C [Tolterodine-2-NB590]
NanoBRET Fold Response (ADRA1B; ADRA1B, tracer 0.1μM): 1.16
NanoBRET Fold Response (ADRA1B; ADRA1B, tracer 1μM): 1.06
NanoBRET Fold Response (CYSLTR1; tracer 0.1μM): 0.86
NanoBRET Fold Response (CYSLTR1; tracer 1μM): 0.91

Compound: CN(C)CCC=C1c2ccccc2CCc2ccc(C(=O)NCCNC(=O)CCOCCOCCOCCOCCNC(=O)CCc3ccc4n3[B-](F)(F)[N+]3=C(c5ccc[nH]5)C=CC3=C4)cc21 [Amitriptyline-b-2-NB590]
NanoBRET Fold Response (ADRA1B; tracer at 0.1μM, listed as amitriptyline-b-2-NB590): 1.73
NanoBRET Fold Response (ADRA1B; tracer at 1μM, listed as amitriptyline-b-2-NB590): 1.67
NanoBRET Fold Response (CYSLTR1; tracer 0.1μM): 0.94
NanoBRET Fold Response (CYSLTR1; tracer 1μM): 1.01

Compound: O=C(CCOCCOCCOCCOCCNC(=O)CCc1ccc2n1[B-](F)(F)[N+]1=C(c3ccc[nH]3)C=CC1=C2)NCCCN1CCN(C2=Nc3ccccc3Oc3ccc(Cl)cc32)CC1 [Loxapine-a-2-NB590]
NanoBRET Fold Response (ADRA1B; ADRA1B, tracer 0.1μM): 1.78
NanoBRET Fold Response (ADRA1B; ADRA1B, tracer 1μM): 1.54
NanoBRET Fold Response (CYSLTR1; tracer 0.1μM): 1.12
NanoBRET Fold Response (CYSLTR1; tracer 1μM): 1.02

Compound: CN(C)CCC=C1c2ccccc2CCc2ccc(C(=O)NCCNC(=O)CCOCCOCCOCCOCCNC(=O)CCc3ccc4n3[B-](F)(F)[N+]3=C(c5ccc[nH]5)C=CC3=C4)cc21 [Amitriptyline-a-2-NB590]
NanoBRET Fold Response (ADRA1B; tracer at 0.1μM): 1.19
NanoBRET Fold Response (ADRA1B; tracer at 1μM): 1.46

Compound: O=C(CCc1ccc2n1[B-](F)(F)[N+]1=C(c3ccc[nH]3)C=CC1=C2)NCCOCCOCCNC(=O)OCCOCCN1CCN(C2=Nc3ccccc3Sc3ccccc32)CC1 [Quetiapine-a-2-NB590]
NanoBRET Fold Response (ADRA1B; ADRA1B, tracer 0.1μM): 1.52
NanoBRET Fold Response (ADRA1B; ADRA1B, tracer 1μM): 1.59
NanoBRET Fold Response (CYSLTR1; tracer 0.1μM): 0.90
NanoBRET Fold Response (CYSLTR1; tracer 1μM): 1.08

Compound: CN1CCN(C2=Nc3cc(Cl)ccc3N(CC(=O)NCCOCCOCCOCCOCCNC(=O)CCc3ccc4n3[B-](F)(F)[N+]3=C(c5ccc[nH]5)C=CC3=C4)c3ccccc32)CC1 [Clozapine-c-2-NB590]
NanoBRET Fold Response (CYSLTR1; 0.1μM tracer): 0.90

NanoBRET Fold Response (ADRA1B; ADRA1B, other tracers/Aminopotentidine (unmodified), 0.1μM): 1.03
NanoBRET Fold Response (ADRA1B; ADRA1B, other tracers/Aminopotentidine (unmodified), 1μM): 0.99
Compound: N#CN/C(=N\CCNC(=O)c1ccc(N)cc1)NCCCOc1cccc(CN2CCCCC2)c1 [Aminopotentidine (unmodified)]

Compound: CN(CCC=C1c2ccccc2CCc2ccccc21)C(=O)CCOCCOCCOCCOCCNC(=O)CCc1ccc2n1[B-](F)(F)[N+]1=C(c3ccc[nH]3)C=CC1=C2 [Amitriptyline-e-2-NB590]
NanoBRET Fold Response (ADRA1B; tracer at 1μM): 1.04

Compound: CN1CCN(C2=Nc3cc(Cl)ccc3Nc3ccc(CNC(=O)CCOCCOCCOCCOCCNC(=O)CCc4ccc5n4[B-](F)(F)[N+]4=C(c6ccc[nH]6)C=CC4=C5)cc32)CC1 [Clozapine-b-2-NB590]
NanoBRET Fold Response (CYSLTR1; 0.1μM tracer): 1.10

Reference: article PMC8151276, “An Integrated Approach toward NanoBRET Tracers for Analysis of GPCR Ligand Engagement” (Molecules, 2021)
